Measured values published in PubChem BioAssay AID2060337 (Molecular Pharmacology Branch, DTP, NCI, 2025).

System: 832693-133-R-J1-PDC multi-cell spheroids, viability
Experiment: Anticancer human tumor 832693-133-R-J1-PDC patient-derived head and neck squamous carcinoma cell line growth inhibition [IpAb]
Details: for IC50: curve of first compound; for viability, T/C: stronger effect = lower value
In short: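 Combinations with ipatasertib or abemaciclib were tested on tumour spheroids holding HUVEC (25%) and MSC (15%) alongside 60% malignant cells. Top concentration was at or near clinical Cmax (10 microM if undefined), descending in half-log steps.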

[1] = second compound 0.01 µM, first compound 0.00316 µM
[2] = second compound 0.01 µM, first compound 0.01 µM
[3] = second compound 0.01 µM, first compound 0.0316 µM
[4] = second compound 0.01 µM, first compound 0.1 µM
[5] = second compound 0.0316 µM, first compound 0.00316 µM
[6] = second compound 0.0316 µM, first compound 0.01 µM
[7] = second compound 0.0316 µM, first compound 0.0316 µM
[8] = second compound 0.0316 µM, first compound 0.1 µM
[9] = second compound 0.1 µM, first compound 0.00316 µM
[10] = second compound 0.1 µM, first compound 0.01 µM
[11] = second compound 0.1 µM, first compound 0.0316 µM
[12] = second compound 0.1 µM, first compound 0.1 µM
[13] = second compound 0.316 µM, first compound 0.00316 µM
[14] = second compound 0.316 µM, first compound 0.01 µM
[15] = second compound 0.316 µM, first compound 0.0316 µM
[16] = second compound 0.316 µM, first compound 0.1 µM
[17] = second compound 1 µM, first compound 0.00316 µM
[18] = second compound 1 µM, first compound 0.01 µM
[19] = second compound 1 µM, first compound 0.0316 µM
[20] = second compound 1 µM, first compound 0.1 µM
[21] = second compound 0.01 µM, first compound 0.316 µM
[22] = second compound 0.01 µM, first compound 1 µM
[23] = second compound 0.01 µM, first compound 3.16 µM
[24] = second compound 0.01 µM, first compound 10 µM
[25] = second compound 0.0316 µM, first compound 0.316 µM
[26] = second compound 0.0316 µM, first compound 1 µM
[27] = second compound 0.0316 µM, first compound 3.16 µM
[28] = second compound 0.0316 µM, first compound 10 µM
[29] = second compound 0.1 µM, first compound 0.316 µM
[30] = second compound 0.1 µM, first compound 1 µM
[31] = second compound 0.1 µM, first compound 3.16 µM
[32] = second compound 0.1 µM, first compound 10 µM
[33] = second compound 0.316 µM, first compound 0.316 µM
[34] = second compound 0.316 µM, first compound 1 µM
[35] = second compound 0.316 µM, first compound 3.16 µM
[36] = second compound 0.316 µM, first compound 10 µM
[37] = second compound 1 µM, first compound 0.316 µM
[38] = second compound 1 µM, first compound 1 µM
[39] = second compound 1 µM, first compound 3.16 µM
[40] = second compound 1 µM, first compound 10 µM
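Also: spheroids exposed to the drugs for one week before the viability readout.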
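For viability, T/C in this document: 100% = DMSO vehicle control wells.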

CC(C)n1nc(-c2ccc3oc(N)nc3c2)c2c(N)ncnc21 + CCN1CCN(Cc2ccc(Nc3ncc(F)c(-c4cc(F)c5nc(C)n(C(C)C)c5c4)n3)nc2)CC1
IC50 (second compound 0.01 µM): > 100 nM
IC50 (second compound 0.0316 µM): 36.3 nM
IC50 (second compound 0.1 µM): 10.6 nM
IC50 (second compound 0.316 µM): 2.03 nM
IC50 (second compound 1 µM): 0.859 nM
viability, T/C (second compound 0.01 µM, first compound 0.000316 µM): 83%
viability, T/C (second compound 0.01 µM, first compound 0.001 µM): 82.8%
viability, T/C [1]: 73.5%
viability, T/C [2]: 77.8%
viability, T/C [3]: 50.6%
viability, T/C [4]: 53.2%
viability, T/C (second compound 0.0316 µM, first compound 0.000316 µM): 71.8%
viability, T/C (second compound 0.0316 µM, first compound 0.001 µM): 73.6%
viability, T/C [5]: 64%
viability, T/C [6]: 61%
viability, T/C [7]: 52.4%
viability, T/C [8]: 38.4%
viability, T/C (second compound 0.1 µM, first compound 0.000316 µM): 61%
viability, T/C (second compound 0.1 µM, first compound 0.001 µM): 56%
viability, T/C [9]: 52.7%
viability, T/C [10]: 53%
viability, T/C [11]: 43%
viability, T/C [12]: 34.5%
viability, T/C (second compound 0.316 µM, first compound 0.000316 µM): 50.6%
viability, T/C (second compound 0.316 µM, first compound 0.001 µM): 55.7%
viability, T/C [13]: 49%
viability, T/C [14]: 42.3%
viability, T/C [15]: 42.9%
viability, T/C [16]: 34.8%
viability, T/C (second compound 1 µM, first compound 0.000316 µM): 59.5%
viability, T/C (second compound 1 µM, first compound 0.001 µM): 50.3%
viability, T/C [17]: 41.6%
viability, T/C [18]: 38.2%
viability, T/C [19]: 39.8%
viability, T/C [20]: 38.6%

CC1(C)CCC(CN2CCN(c3ccc(C(=O)NS(=O)(=O)c4ccc(NCC5CCOCC5)c([N+](=O)[O-])c4)c(Oc4cnc5[nH]ccc5c4)c3)CC2)=C(c2ccc(Cl)cc2)C1 + CCN1CCN(Cc2ccc(Nc3ncc(F)c(-c4cc(F)c5nc(C)n(C(C)C)c5c4)n3)nc2)CC1
IC50 (second compound 0.01 µM): 5410 nM
IC50 (second compound 0.0316 µM): 6550 nM
IC50 (second compound 0.1 µM): 4190 nM
IC50 (second compound 0.316 µM): 4120 nM
IC50 (second compound 1 µM): 4600 nM
viability, T/C [3]: 93.7%
viability, T/C [4]: 104%
viability, T/C [21]: 102%
viability, T/C [22]: 96.1%
viability, T/C [23]: 75.2%
viability, T/C [24]: 21.2%
viability, T/C [7]: 89%
viability, T/C [8]: 93.9%
viability, T/C [25]: 85.8%
viability, T/C [26]: 86.5%
viability, T/C [27]: 83.6%
viability, T/C [28]: 30.4%
viability, T/C [11]: 73.1%
viability, T/C [12]: 69%
viability, T/C [29]: 78.1%
viability, T/C [30]: 71.2%
viability, T/C [31]: 60.4%
viability, T/C [32]: 17.7%
viability, T/C [15]: 55.6%
viability, T/C [16]: 61%
viability, T/C [33]: 51.9%
viability, T/C [34]: 67.3%
viability, T/C [35]: 75.5%
viability, T/C [36]: 9.24%
viability, T/C [19]: 63.9%
viability, T/C [20]: 72.1%
viability, T/C [37]: 80.2%
viability, T/C [38]: 68.5%
viability, T/C [39]: 72.9%
viability, T/C [40]: 5.47%

CCCS(=O)(=O)Nc1ccc(F)c(C(=O)c2c[nH]c3ncc(-c4ccc(Cl)cc4)cc23)c1F + CCN1CCN(Cc2ccc(Nc3ncc(F)c(-c4cc(F)c5nc(C)n(C(C)C)c5c4)n3)nc2)CC1
IC50 (second compound 0.01 µM): 5060 nM
IC50 (second compound 0.0316 µM): 3490 nM
IC50 (second compound 0.1 µM): 1240 nM
IC50 (second compound 0.316 µM): < 31.6 nM
IC50 (second compound 1 µM): 77.5 nM
viability, T/C [3]: 97.9%
viability, T/C [4]: 105%
viability, T/C [21]: 100%
viability, T/C [22]: 87.6%
viability, T/C [23]: 63.6%
viability, T/C [24]: 30.9%
viability, T/C [7]: 88.7%
viability, T/C [8]: 88.4%
viability, T/C [25]: 81.5%
viability, T/C [26]: 74.9%
viability, T/C [27]: 51.4%
viability, T/C [28]: 28.3%
viability, T/C [11]: 66.3%
viability, T/C [12]: 60.1%
viability, T/C [29]: 64.9%
viability, T/C [30]: 51.9%
viability, T/C [31]: 35.7%
viability, T/C [32]: 15.2%
viability, T/C [15]: 44.8%
viability, T/C [16]: 51.9%
viability, T/C [33]: 40.4%
viability, T/C [34]: 36.9%
viability, T/C [35]: 26.6%
viability, T/C [36]: 13.4%
viability, T/C [19]: 50.5%
viability, T/C [20]: 49.6%
viability, T/C [37]: 44.2%
viability, T/C [38]: 24.8%
viability, T/C [39]: 18.8%
viability, T/C [40]: 13.3%

COc1c(OCCCN2CCOCC2)ccc2c3n(c(=NC(=O)c4cnc(N)nc4)nc12)CCN3 + CCN1CCN(Cc2ccc(Nc3ncc(F)c(-c4cc(F)c5nc(C)n(C(C)C)c5c4)n3)nc2)CC1
IC50 (second compound 0.01 µM): 14.4 nM
IC50 (second compound 0.0316 µM): 11.2 nM
IC50 (second compound 0.1 µM): 7.16 nM
IC50 (second compound 0.316 µM): 4.44 nM
IC50 (second compound 1 µM): 6.11 nM
viability, T/C [1]: 89.4%
viability, T/C [2]: 61.8%
viability, T/C [3]: 24.7%
viability, T/C [4]: 7.08%
viability, T/C [21]: 3.46%
viability, T/C [22]: 5.82%
viability, T/C [5]: 74.2%
viability, T/C [6]: 52.7%
viability, T/C [7]: 23.4%
viability, T/C [8]: 5.88%
viability, T/C [25]: 3%
viability, T/C [26]: 2.63%
viability, T/C [9]: 60.1%
viability, T/C [10]: 45.6%
viability, T/C [11]: 22.1%
viability, T/C [12]: 6.68%
viability, T/C [29]: 3.33%
viability, T/C [30]: 3.51%
viability, T/C [13]: 53.8%
viability, T/C [14]: 40.8%
viability, T/C [15]: 21.5%
viability, T/C [16]: 9.72%
viability, T/C [33]: 6.61%
viability, T/C [34]: 6.55%
viability, T/C [17]: 53.2%
viability, T/C [18]: 47.7%
viability, T/C [19]: 23.4%
viability, T/C [20]: 16.2%
viability, T/C [37]: 12%
viability, T/C [38]: 14.8%

Cc1nc(NC(=O)N2CCCC2C(N)=O)sc1-c1ccnc(C(C)(C)C(F)(F)F)c1 (stereo not given) + CCN1CCN(Cc2ccc(Nc3ncc(F)c(-c4cc(F)c5nc(C)n(C(C)C)c5c4)n3)nc2)CC1
IC50 (second compound 0.01 µM): 536 nM
IC50 (second compound 0.0316 µM): 264 nM
IC50 (second compound 0.1 µM): 138 nM
IC50 (second compound 0.316 µM): 128 nM
IC50 (second compound 1 µM): 35.9 nM
viability, T/C [3]: 80.1%
viability, T/C [4]: 87.8%
viability, T/C [21]: 65.7%
viability, T/C [22]: 29.2%
viability, T/C [23]: 16.2%
viability, T/C [24]: 3.69%
viability, T/C [7]: 75.8%
viability, T/C [8]: 69%
viability, T/C [25]: 46%
viability, T/C [26]: 21.4%
viability, T/C [27]: 10.5%
viability, T/C [28]: 3.09%
viability, T/C [11]: 57.4%
viability, T/C [12]: 53.5%
viability, T/C [29]: 42.3%
viability, T/C [30]: 21.4%
viability, T/C [31]: 11.4%
viability, T/C [32]: 2.17%
viability, T/C [15]: 55.4%
viability, T/C [16]: 49.4%
viability, T/C [33]: 44.9%
viability, T/C [34]: 19.4%
viability, T/C [35]: 11.5%
viability, T/C [36]: 2.65%
viability, T/C [19]: 49.7%
viability, T/C [20]: 48%
viability, T/C [37]: 37.6%
viability, T/C [38]: 25.1%
viability, T/C [39]: 14%
viability, T/C [40]: 6.29%
